Target: Prostaglandin E2 receptor EP4 subtype (Homo sapiens, UniProt P35408)
Test: The filters are dried then counted for radioactivity in a scintillation counter (Topcount, Packard) using a scintillation cocktail (Microscint 0, Packard).
Format: cell membranes

Prostaglandin E2 receptor EP4 subtype, sequence (P35408 whole entry): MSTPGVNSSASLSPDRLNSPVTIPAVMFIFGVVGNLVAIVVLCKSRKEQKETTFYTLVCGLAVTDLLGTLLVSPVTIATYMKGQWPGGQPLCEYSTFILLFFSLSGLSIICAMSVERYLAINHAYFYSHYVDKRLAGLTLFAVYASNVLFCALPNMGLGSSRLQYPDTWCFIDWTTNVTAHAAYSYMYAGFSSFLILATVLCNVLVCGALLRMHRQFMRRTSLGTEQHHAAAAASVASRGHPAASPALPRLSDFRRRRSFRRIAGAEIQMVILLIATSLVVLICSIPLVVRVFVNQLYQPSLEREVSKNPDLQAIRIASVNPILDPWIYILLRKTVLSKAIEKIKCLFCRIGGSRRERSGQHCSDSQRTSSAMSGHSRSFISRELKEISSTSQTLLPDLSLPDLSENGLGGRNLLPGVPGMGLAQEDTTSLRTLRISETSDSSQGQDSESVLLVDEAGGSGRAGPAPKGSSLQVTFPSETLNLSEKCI

IC50: 3.3 nM | Ki: 1.2 nM
Structure (SMILES): CCC#CC[C@H](C)[C@H](O)/C=C/[C@H]1CC(F)(F)C(=O)N1CCCc1ccc(C(=O)O)s1
